Results: patent EP4617278A1, “NUCLEOTIDE ANALOG, AND COMPOSITION AND USE THEREOF” (priority 2022, dated 2024)

Tested on: SARS-CoV-2 replicon
Format: cell-based
Settings: read-out: SARS-CoV-2 Replicon (Huh-7cell) EC50

Row | SMILES | EC50 [nM]
1 | COC(C)(C)COC(=O)[C@H](Cc1ccccc1)N[P@](=O)(OC[C@H]1O[C@@](C#N)(c2ccc3c(N)ncnn23)[C@H](OC(=O)C(C)C)[C@@H]1OC(=O)C(C)C)Oc1ccccc1 [Compound 64b, (2R,3R,4R,5R)-2-(4-aminopyrrolo[2,1-f][1,2,4]triazin-7-yl)-2-cyano-5-((((S)-(((S)-1-(2-methoxy-2-methylpropoxy)-1-oxo-3-phenylpropan-2-yl)amino)(phenoxy)phosphoryl)oxy)methyl)tetrahydrofuran-3,4-diyl bis(2-methylpropionate)] | < 5
2 | CC(C)OC(=O)OCO[P@@](=O)(N[C@@H](C)C(=O)OC(C)C)OC[C@H]1O[C@@](C#N)(c2ccc3c(N)ncnn23)[C@H](OC(=O)C(C)(C)C)[C@@H]1OC(=O)C(C)(C)C [Compound 4a, (2R,3R,4R,5R)-2-(4-aminopyrrolo[2,1-f][1,2,4]triazin-7-yl)-2-cyano-5-((((R)-(((S)-1-isopropoxy-1-oxopropan-2-yl)amino)(((isopropoxycarbonyl)oxy)methoxy)phosphoryl)oxy)methyl)tetrahydrofuran-3,4-diyl bis(2,2-dimethylpropionate)] | 50 to 500
3 | CCCCCOC(=O)C[C@H](N[P@@](=O)(OC[C@H]1O[C@@](C#N)(c2ccc3c(N)ncnn23)[C@H](OC(=O)C(C)C)[C@@H]1OC(=O)C(C)C)Oc1ccccc1)C(=O)OCCCCC [Compound 38a, (2R,3R,4R,5R)-2-(4-aminopyrrolo[2,1-f][1,2,4]triazin-7-yl)-2-cyano-5-((((R)-(((S)-1,4-dipentyloxy-1,4-dioxobutan-2-yl)amino)(phenoxy)phosphoryl)oxy)methyl)tetrahydrofuran-3,4-diyl bis(2-methylpropionate)] | 50 to 500
4 | CC(C)C(=O)O[C@H]1[C@@H](OC(=O)C(C)C)[C@](C#N)(c2ccc3c(N)ncnn23)O[C@@H]1CO[P@@](=O)(N[C@@H](Cc1ccccc1)C(=O)OC1CCC1)Oc1ccccc1 [Compound 63b, (2R,3R,4R,5R)-2-(4-aminopyrrolo[2,1-f][1,2,4]triazin-7-yl)-2-cyano-5-((((S)-(((S)-1-cyclobutoxy-1-oxo-3-phenylpropan-2-yl)amino)(phenoxy)phosphoryl)oxy)methyl)tetrahydrofuran-3,4-diyl bis(2-methylpropionate)] | < 5
5 | COC(C)(C)COC(=O)[C@H](Cc1ccccc1)N[P@@](=O)(OC[C@H]1O[C@@](C#N)(c2ccc3c(N)ncnn23)[C@H](OC(=O)C(C)C)[C@@H]1OC(=O)C(C)C)Oc1ccccc1 [Compound 64a, (2R,3R,4R,5R)-2-(4-aminopyrrolo[2,1-f][1,2,4]triazin-7-yl)-2-cyano-5-((((R)-(((S)-1-(2-methoxy-2-methylpropoxy)-1-oxo-3-phenylpropan-2-yl)amino)(phenoxy)phosphoryl)oxy)methyl)tetrahydrofuran-3,4-diyl bis(2-methylpropionate)] | < 5
6 | CCC(=O)O[C@H]1[C@@H](OC(=O)CC)[C@](C#N)(c2ccc3c(N)ncnn23)O[C@@H]1CO[P@](=O)(OCOC(=O)OC(C)C)Oc1ccc(C(C)(C)C)cc1 [Compound 23a, (2R,3R,4R,5R)-2-(4-aminopyrrolo[2,1-f][1,2,4]triazin-7-yl)-5-((((S)-(4-tert-butylphenoxy)(((isopropoxycarbonyl)oxy)methoxy)phosphoryl)oxy)methyl)-2-cyanotetrahydrofuran-3,4-diyl dipropionate] | < 5
7 | CC(C)OC(=O)OCO[P@](=O)(OC[C@H]1O[C@@](C#N)(c2ccc3c(N)ncnn23)[C@H](OC(=O)C(C)C)[C@@H]1OC(=O)C(C)C)Oc1ccc(C(C)(C)C)cc1 [Compound 24b] | 10 to 50
8 | CCC(CC)COC(=O)[C@H](C)N[P@@](=O)(OCc1ccccc1C)OC[C@H]1O[C@@](C#N)(c2ccc3c(N)ncnn23)[C@H](OC(=O)C(C)C)[C@@H]1OC(=O)C(C)C [Compound 16b, (2R,3R,4R,5R)-2-(4-aminopyrrolo[2,1-f][1,2,4]triazin-7-yl)-2-cyano-5-((((R)-(((S)-1-(2-ethylbutoxy)-1-oxopropan-2-yl)amino)((2-methylbenzyl)oxy)phosphoryl)oxy)methyl)tetrahydrofuran-3,4-diyl bis(2-methylpropionate)] | 50 to 500
9 | CC(C)C(=O)OCO[P@@](=O)(OC[C@H]1O[C@@](C#N)(c2ccc3c(N)ncnn23)[C@H](OC(=O)C(C)C)[C@@H]1OC(=O)C(C)C)Oc1ccc(C(C)(C)C)cc1 [Compound 26a, (2R,3R,4R,5R)-2-(4-aminopyrrolo[2,1-f][1,2,4]triazin-7-yl)-5-((((S)-(4-tert-butylphenoxy)((isobutyryloxy)methoxy)phosphoryl)oxy)methyl)-2-cyanotetrahydrofuran-3,4-diyl bis(2-methylpropionate)] | 5 to 10
10 | CC(C)C(=O)O[C@H]1[C@@H](OC(=O)C(C)C)[C@](C#N)(c2ccc3c(N)ncnn23)O[C@@H]1CO[P@@](=O)(N[C@@H](CC(=O)OC1CCC1)C(=O)OC1CCC1)Oc1ccccc1 [Compound 54b, (2R,3R,4R,5R)-2-(4-aminopyrrolo[2,1-f][1,2,4]triazin-7-yl)-2-cyano-5-((((S)-(((S)-1,4-dicyclobutoxy-1,4-dioxobutan-2-yl)amino)(phenoxy)phosphoryl)oxy)methyl)tetrahydrofuran-3,4-diyl bis(2-methylpropionate)] | < 5
11 | CCCCC/C=C\C/C=C\CCCCCCCCOC(=O)[C@H](C)N[P@@](=O)(OCOC(=O)OC(C)C)OC[C@H]1O[C@@](C#N)(c2ccc3c(N)ncnn23)[C@H](OC(=O)C(C)C)[C@@H]1OC(=O)C(C)C [Compound 52b, (2R,3R,4R,5R)-2-(4-aminopyrrolo[2,1-f][1,2,4]triazin-7-yl)-2-cyano-5-((((S)-(((isopropoxycarbonyl)oxy)methoxy)(((S)-1-(((9Z,12Z)-octadeca-9,12-dien-1-yl)oxy)-1-oxopropan-2-yl)amino)phosphoryl)oxy)methyl)tetrahydrofuran-3,4-diyl bis(2-methylpropionate)] | 50 to 500
12 | CC(C)OC(=O)OCO[P@](=O)(N[C@@H](C)C(=O)OC(C)C)OC[C@H]1O[C@@](C#N)(c2ccc3c(N)ncnn23)[C@H](OC(=O)C(C)C)[C@@H]1OC(=O)C(C)C [Compound 3b, (2R,3R,4R,5R)-2-(4-aminopyrrolo[2,1-f][1,2,4]triazin-7-yl)-2-cyano-5-((((S)-(((S)-1-isopropoxy-1-oxopropan-2-yl)amino)(((isopropoxycarbonyl)oxy)methoxy)phosphoryl)oxy)methyl)tetrahydrofuran-3,4-diyl bis(2-methylpropionate)] | < 5
13 | CC(C)C(=O)OCOP(=O)(OCOC(=O)C(C)C)OC[C@H]1O[C@@](C#N)(c2ccc3c(N)ncnn23)[C@H](OC(=O)C(C)C)[C@@H]1OC(=O)C(C)C [Compound 45] | ≤ 5
14 | CCC(CC)COC(=O)C1(N[P@](=O)(OCOC(=O)OC(C)C)OC[C@H]2O[C@@](C#N)(c3ccc4c(N)ncnn34)[C@H](OC(=O)C(C)C)[C@@H]2OC(=O)C(C)C)CCC1 [Compound 32a, (2R,3R,4R,5R)-2-(4-aminopyrrolo[2,1-f][1,2,4]triazin-7-yl)-2-cyano-5-((((R)-((1-((2-ethylbutoxy)carbonyl)cyclobutyl)amino)(((isopropoxycarbonyl)oxy)methoxy)phosphoryl)oxy)methyl)tetrahydrofuran-3,4-diyl bis(2-methylpropionate)] | 10 to 50
